The METLIN SMRT retention time set (Domingo-Almenara et al. 2019)

Assay: gradient 5% acetonitrile 3 min, to 50% in 2 min, to 85% in 15 min, held 3 min, 100 µL/min
Conditions: column: Zorbax Extend-C18 2.1 x 50 mm; eluents: water / acetonitrile, 0.1% formic acid
In short: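 Retention times come from adduct peaks that were picked computationally and then checked by hand. The standards, pure and pooled in mixtures of ~100 molecules, were run on a Zorbax Extend-C18 column (2.1 × 50 mm, 1.8 μm) at 100 μL/min with water and acetonitrile, each with 0.1% formic acid. Detection was by quadrupole time-of-flight mass spectrometry in positive and negative ionization mode, with a dead volume of 40 μL and a dwell volume of 900 μL.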

| Compound | RP-LC retention time [s] |
| --- | --- |
| COc1ccc(OC)c(NC(=O)CN2CCc3[nH]c4c(C)cc(F)cc4c(=O)c3C2)c1 | 640 |
| Cc1ccc(C)c(Nc2c(-c3ccccc3)nc3ncccn23)c1 | 815 |
| Cn1nc(-c2nnc(-c3ccc(F)cc3)o2)c2c1CCN(S(=O)(=O)c1cccc(F)c1)C2 | 963 |
| CCN1C(=O)NC(c2cccc(F)c2)C2=C1CN(CCC(=O)NCCOC)C2=O (stereo unspecified) | 586 |
| COc1ccc(-c2n[nH]c3c2C(c2ccc(O)cc2)N(C)C3=O)cc1 (stereo unspecified) | 667 |
| O=C(COc1cccc2c(=O)[nH]ccc12)c1ccccc1 | 806 |
| Cc1nc2ccn(Cc3cccnc3)c(=O)c2cc1C(=O)NCc1ccc2c(c1)OCO2 | 592 |
| Cc1ccc(C)c(C(=O)Nc2cc(-c3cccnc3)no2)c1 | 585 |
| O=C(Nc1cccc(F)c1)N1CCN(Cc2nc3cc(Cl)ccc3o2)CC1 | 784 |
| O=C(c1cc(C2CC2)[nH]n1)N1CCN(c2ccc(N3CCOCC3)nn2)CC1 | 577 |
| Cc1ccc(C2Cn3nnc(-c4nc(-c5ccccc5F)no4)c3CO2)c(C)c1 (stereo unspecified) | 1230 |
| O=C(CN1CCN(c2ccccn2)CC1)Nc1ccc(F)c(F)c1 | 576 |
| Cc1ccc(-c2c(C(=O)NCCN3CCOCC3)nc3ccccn23)cc1 | 616 |
| O=C(Cn1ccc2ccccc21)NCCn1ncccc1=O | 625 |
| CCc1ccccc1NC(=O)Cn1c(=O)c(CCC(=O)NCC(C)C)nc2ccccc21 | 854 |
| COc1cc(CNC(=O)C2CCCN(c3nccnc3Oc3ccccc3)C2)cc(OC)c1 (stereo unspecified) | 929 |
| O=C(c1ccnnc1)N1C[C@@H](COCC2CC2)[C@H](c2ccccn2)C1 | 654 |
| CCCN1CCN(C(=O)c2cn(-c3cc(N4CCSCC4)ncn3)cn2)CC1 | 605 |
| Cc1nc2c(n1C)CN(C(=O)c1ccc(Cl)s1)CC2 | 574 |
| COc1ccc(-c2n[nH]c3c2C(c2cc(OC)ccc2OC)NC3=O)cc1 (stereo unspecified) | 729 |
| COc1cc(Nc2nc(-c3nnn(-c4ccc(Cl)cc4)c3C)ns2)cc(OC)c1 | 1100 |
| Cc1oc2ccn(Cc3ccccc3F)c(=O)c2c1C(=O)NCc1cc(F)cc(F)c1 | 827 |

| Compound | RP-LC retention time [s] |
| --- | --- |
| CCOc1ccc(-c2noc(N3CCC(C(=O)N4CCN(C)CC4)CC3)n2)cc1OC | 626 |
| O=C(NCc1ccccc1)N1CCCC(Cn2cnc3cccnc32)C1 (stereo unspecified) | 618 |
| Cc1cc(C)cc(NC(=O)Cn2c(=O)c(CCC(=O)NC3CCCC3)nc3ccccc32)c1 | 916 |
| Cc1ccn2cc(-c3ccc(NC(=O)c4ccc(Br)cc4)cc3)nc2n1 | 698 |
| CC(C)c1noc(-c2cc(=O)n(CC(=O)Nc3ccc(F)c(F)c3)c3ccccc23)n1 | 1040 |
| C=CCNC(=O)c1cnn(-c2cc(-c3nc(C4CC4)no3)ccn2)c1C | 895 |
| COC(=O)C1=C(NC(=O)COc2ccc(Cl)cc2Cl)CCS1 | 1110 |
| O=C([C@@H]1OCC(=O)N(C2CC2)[C@H]1c1ccccc1)N1CCN(c2ccccc2)CC1 | 834 |
| O=S(=O)(Nc1cccn2c(C3CCC3)nnc12)c1cccc2nsnc12 | 719 |
| O=C(COc1ccc(Cl)cc1)Nc1nc(-c2ccccc2)cs1 | 1100 |
| Cc1cccc(CNC(=O)C2(C)Oc3cccnc3N(C(C)C)C2=O)c1 (stereo unspecified) | 1120 |
| COc1ccc(NC(=O)c2cn3c(n2)CSCC3)cc1OC | 631 |
| CC1(C(=O)NCc2ccc(Cl)cc2)CN(S(C)(=O)=O)CC(=O)N1Cc1ccccc1 (stereo unspecified) | 858 |
| CCOC(=O)c1noc2ncnc(N(Cc3ccccc3)C(C)C)c12 | 1080 |
| CCSc1nc2ccc(NS(=O)(=O)c3ccc(F)cc3Cl)cc2s1 | 1110 |
| CCc1ccc(S(=O)(=O)c2cnc(N3CCN(c4cc(C)ccc4C)CC3)nc2N)cc1 | 1400 |
| Cc1ccc(Oc2cccc(C(=O)Nc3ccc(-c4cn5ccccc5n4)cc3)c2)nn1 | 568 |
| CCCNC(=O)C1CCN(c2ccc(SCC(=O)NCc3cccc(C(F)(F)F)c3)nn2)CC1 | 672 |
| CCc1ccc(N2C(=O)CN(S(C)(=O)=O)CC2(C)C(=O)NCc2ccc(Cl)cc2)cc1 (stereo unspecified) | 874 |
| CCCCN(Cc1ccco1)C(=O)Cn1nc(Cc2cccnc2)c2ccccc2c1=O | 701 |
| CCc1ccccc1NC(=O)N1CCCC(Cn2cnc3cccnc32)C1 (stereo unspecified) | 719 |
| Cc1cc(=O)n(CC(=O)Nc2ccc(F)c(F)c2)c(N2CCCCC2)n1 | 700 |

| Compound | RP-LC retention time [s] |
| --- | --- |
| COC(=O)c1cccc(Nc2c(-c3ccc(C)cc3)nc3cnccn23)c1 | 849 |
| CCCCOC(=O)C1=CN(Cc2ccccc2)S(=O)(=O)N=C1C | 1080 |
| CCOC(=O)c1cccc(NC(=O)CCc2c(-c3ccccc3)nc3ccccn23)c1 | 984 |
| COc1ccc(NC(=O)N2CC=C(c3cn(C(C)C)c4ncccc34)CC2)cc1F | 920 |
| CCOC(=O)c1c(C)oc2nc(C)nc(NC3CCCc4ccccc43)c12 (stereo unspecified) | 1130 |
| COc1ccc(-c2cc3nn(CC(=O)N4CCc5ccccc54)c(=O)n3c(C)n2)cc1 | 856 |
| CC(Cc1cccs1)NC(=O)Cc1ccc(SC(C)C)cc1 (stereo unspecified) | 969 |
| O=C(Nc1cccc(Cl)c1)N1CCc2nc(-c3ccccc3)ncc2C1 | 997 |
| Brc1ccc(CSc2nnc(-c3ccccc3)o2)cc1 | 1180 |
| Cc1ccc2nc(-c3ccc(Cl)cc3)c(Nc3ccccc3C)n2c1 | 890 |
| CCCn1cc(C(=O)NCCN2CCc3ccccc3C2)c2cccnc21 | 648 |
| CC(C)C(=O)Nc1ccc2nc(N3CCN(c4ccccc4F)CC3)cc(C(=O)O)c2c1 | 664 |
| COC[C@@H](c1ccc(C(F)(F)F)cc1)N1CCN(C2(C)CCN(C(=O)c3c(C)ncnc3C)CC2)C[C@@H]1C | 744 |
| Cn1ccc2c(cc(C(=O)NCCCc3ccccc3)n2C)c1=O | 736 |
| Cc1cc2nc3sc(C(=O)NCCCN4CCN(C)CC4)cc(=O)n3c2cc1C | 730 |
| COC(=O)c1[nH]c(C)c(C(=O)C(C)N(CC2CCCCC2)C(=O)c2ccccc2)c1C (stereo unspecified) | 1050 |
| COc1ccc(-c2cn3c(CC(=O)Nc4ccc(F)cc4)csc3n2)cc1OC | 729 |
| O=C(COc1ccccc1F)Nc1ccc2c(c1)CCC(=O)N2Cc1ccccc1 | 860 |
| Cc1ccc(CC(=O)NC2CCN(c3ccc(F)cc3)C2=O)cc1 (stereo unspecified) | 828 |
| O=C(CSc1nnc2c3cc(-c4ccccc4)nn3ccn12)Nc1cccc(C(F)(F)F)c1 | 969 |
| Cc1cc(C)c(NC(=O)COc2cc(C)nc(N3CCN(c4ccccc4)CC3)n2)c(C)c1 | 942 |
| CCc1nnc(NC(=O)C2CCN(C(=O)c3ccc(F)cc3)CC2)s1 | 679 |
